{"source": "patent US9790180B2", "about": "“Piperidine derivatives as HDAC1/2 inhibitors” (Acetylon Pharmaceuticals, Inc., priority 2014, dated 2017)", "key": {"HDAC1": {"target": "HDAC1 (Homo sapiens (Human), UniProt Q13547)", "sequence (Q13547 whole entry)": "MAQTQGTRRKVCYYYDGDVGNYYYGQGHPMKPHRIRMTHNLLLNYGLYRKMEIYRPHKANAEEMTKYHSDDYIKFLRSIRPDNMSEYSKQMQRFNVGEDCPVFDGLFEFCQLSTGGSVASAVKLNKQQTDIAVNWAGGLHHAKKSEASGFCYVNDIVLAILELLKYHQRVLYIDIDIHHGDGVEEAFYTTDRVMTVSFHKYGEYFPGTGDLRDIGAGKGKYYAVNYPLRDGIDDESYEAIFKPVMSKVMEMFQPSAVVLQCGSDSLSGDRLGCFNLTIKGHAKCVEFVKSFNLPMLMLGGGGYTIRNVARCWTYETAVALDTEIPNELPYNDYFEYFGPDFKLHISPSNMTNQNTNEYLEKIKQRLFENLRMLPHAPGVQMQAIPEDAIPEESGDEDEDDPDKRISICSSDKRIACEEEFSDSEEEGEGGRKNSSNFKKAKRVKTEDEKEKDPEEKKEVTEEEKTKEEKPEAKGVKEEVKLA", "assay": "HDAC enzyme assay, HDAC1", "format": "biochemical", "conditions": "24 hours pre-incubation with enzyme; read-out: IC50 (nM) HDAC1", "description": "(§1) Compounds for testing were diluted in DMSO to 50 fold the final concentration and a ten point three fold dilution series was made. The compounds were diluted in assay buffer (50 mM HEPES, pH 7.4, 100 mM KCl, 0.001% Tween-20, 0.05% BSA, 20 μM tris(2-carboxyethyl)phosphine) to 6 fold their final concentration. The HDAC enzymes (purchased from BPS Biosciences) were diluted to 1.5 fold their final concentration in assay buffer and pre-incubated with the compounds for 24 hours prior to addition of the substrate.\n(§2) The substrate tripeptide substrate 3 (synthesized in house) for each enzyme was equal to the Km as determined by a substrate titration curve. The substrates were diluted in assay buffer at 6× their final concentration with 0.3 μM sequencing grade trypsin (Sigma). The substrate/trypsin mix was added to the enzyme/compound mix, the plate was shaken for 60 seconds and placed into a Spectramax M5 microtiter plate reader. The development of fluorescence was monitored for 30 min and the linear rate of the reaction was calculated. The IC50 was determined using Graph Pad Prism by a four parameter curve fit. The IC50 values obtained for the compounds of this invention are found in Table 1. Examples of the curves are found in FIGS. 1 and 4."}, "HDAC2": {"target": "HDAC2 (Homo sapiens (Human), UniProt Q92769)", "sequence (Q92769 whole entry)": "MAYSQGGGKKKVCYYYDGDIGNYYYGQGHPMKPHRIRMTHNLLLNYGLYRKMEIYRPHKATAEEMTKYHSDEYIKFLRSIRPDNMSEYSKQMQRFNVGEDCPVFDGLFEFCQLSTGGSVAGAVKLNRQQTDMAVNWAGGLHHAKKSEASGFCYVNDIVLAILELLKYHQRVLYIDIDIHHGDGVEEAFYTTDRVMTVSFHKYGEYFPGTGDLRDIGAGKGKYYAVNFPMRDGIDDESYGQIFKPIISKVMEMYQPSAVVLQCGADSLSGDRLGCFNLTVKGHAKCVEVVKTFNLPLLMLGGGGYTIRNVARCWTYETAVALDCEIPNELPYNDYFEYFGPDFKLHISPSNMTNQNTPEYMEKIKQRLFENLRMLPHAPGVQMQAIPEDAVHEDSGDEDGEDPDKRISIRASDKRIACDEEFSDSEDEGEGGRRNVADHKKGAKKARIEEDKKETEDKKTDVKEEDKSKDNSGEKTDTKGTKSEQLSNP", "assay": "HDAC enzyme assay, HDAC2", "format": "biochemical", "conditions": "24 hours pre-incubation with enzyme; read-out: IC50 (nM) HDAC2", "description": "as §1, §2"}, "HDAC3": {"target": "HDAC3 (Homo sapiens (Human), UniProt O15379)", "sequence (O15379 whole entry)": "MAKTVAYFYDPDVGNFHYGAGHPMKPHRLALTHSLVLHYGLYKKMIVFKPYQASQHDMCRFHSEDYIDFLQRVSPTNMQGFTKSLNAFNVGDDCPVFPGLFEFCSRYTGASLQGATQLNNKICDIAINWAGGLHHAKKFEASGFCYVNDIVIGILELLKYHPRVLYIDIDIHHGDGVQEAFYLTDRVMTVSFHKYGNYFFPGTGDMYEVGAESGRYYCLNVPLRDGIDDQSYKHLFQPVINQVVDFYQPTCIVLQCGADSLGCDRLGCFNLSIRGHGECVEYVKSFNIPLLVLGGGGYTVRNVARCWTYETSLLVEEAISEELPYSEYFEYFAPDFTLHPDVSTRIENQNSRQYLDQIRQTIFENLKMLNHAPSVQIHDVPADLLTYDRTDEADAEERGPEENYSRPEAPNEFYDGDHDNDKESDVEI", "sequence (Q9Y618 395-489 partner)": "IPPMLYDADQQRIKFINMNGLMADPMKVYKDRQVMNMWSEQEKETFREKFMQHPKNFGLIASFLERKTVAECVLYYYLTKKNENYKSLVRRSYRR", "assay": "HDAC enzyme assay, HDAC3", "format": "biochemical", "conditions": "24 hours pre-incubation with enzyme; read-out: IC50 (nM) HDAC3", "description": "as §1, §2"}, "[1]": {"test_system": "fetal β-like globin (HbG, γ)", "assay": "Fetal globin induction assay in CD34+ cells isolated from human bone marrow", "format": "cell-based", "conditions": "lowest concentration to achieve a 2 fold increase in fetal globin gene expression over baseline", "description": "CD34+ cells isolated from human bone marrow were cultured in vitro using a method described by Bradner J E (Proc Natl Acad Sci USA. 2010 Jul. 13; 107(28):12617-22), which consists of a 7 day expansion phase in media that supports differentiation of cells towards the erythroid lineage followed by a differentiation phase for 3 days where erythroid cell development continues. At the end of the differentiation period these cells are primarily late erythroblasts. mRNA levels were determined by quantitative real time PCR using primer/probe sets designed to adult major β-globin (β), adult minor β-globin (δ), fetal β-like globin (HbG, γ), and embryonic β-like globin (ε). Protein levels were determined by flow cytometry using fluorescent antibodies against fetal hemoglobin (HbF) or adult hemoglobin (HbA).\nIn the experiment shown in FIG. 3, cells were differentiated in the presence of vehicle (DMSO) 0.3, 1 and 3 μM of Compound A, and of 0.3, 1, and 3 μM of Compound 003. In the experiment shown in FIG. 6, cells were differentiated in the presence of vehicle (DMSO) 0.3, 1 and 3 μM of Compound A, and of 0.3, 1, and 3 μM of Compound 005. Globin mRNA levels were determined at day 3 of differentiation."}, "[2]": {"assay": "Rat cassette pharmacokinetics", "format": "in vivo", "conditions": "male, SD, plasma", "description": "Male SD rats were fasted overnight. Compounds of the invention were dissolved in dimethyl acetamide at 10 times the final concentration, then Solutol HS 15 (BASF) was added to a final concentration of 10%. Finally 80% saline was added and vortexed to achieve a clear solution. For the IV dosing three animals were injected via the foot dorsal vein with 1 mg/kg compound. For the PO dosing 5 mg/kg of compound was delivered by oral gavage. Blood was collected via the tail vein into K2EDTA tubes at 5 minutes, 15 minutes, 30 minutes, 1 hour, 2 hours, 4 hours, 8 hours and 24 hours after dosing. The blood was centrifuged at 2000 g for 5 minutes at 4° C. to obtain plasma. The plasma was extracted with acetonitrile and the level of compound was analyzed by LC/MS/MS. The level of compound in plasma was calculated from a standard curve in rat plasma. The IV clearance and area under the curve were calculated using WinNonLin software. The dose adjusted area under the curve for the IV and oral dosing were used to calculate the oral bioavailability."}, "hERG channel": {"target": "hERG channel (Homo sapiens (Human), UniProt Q12809)", "sequence (Q12809 whole entry)": "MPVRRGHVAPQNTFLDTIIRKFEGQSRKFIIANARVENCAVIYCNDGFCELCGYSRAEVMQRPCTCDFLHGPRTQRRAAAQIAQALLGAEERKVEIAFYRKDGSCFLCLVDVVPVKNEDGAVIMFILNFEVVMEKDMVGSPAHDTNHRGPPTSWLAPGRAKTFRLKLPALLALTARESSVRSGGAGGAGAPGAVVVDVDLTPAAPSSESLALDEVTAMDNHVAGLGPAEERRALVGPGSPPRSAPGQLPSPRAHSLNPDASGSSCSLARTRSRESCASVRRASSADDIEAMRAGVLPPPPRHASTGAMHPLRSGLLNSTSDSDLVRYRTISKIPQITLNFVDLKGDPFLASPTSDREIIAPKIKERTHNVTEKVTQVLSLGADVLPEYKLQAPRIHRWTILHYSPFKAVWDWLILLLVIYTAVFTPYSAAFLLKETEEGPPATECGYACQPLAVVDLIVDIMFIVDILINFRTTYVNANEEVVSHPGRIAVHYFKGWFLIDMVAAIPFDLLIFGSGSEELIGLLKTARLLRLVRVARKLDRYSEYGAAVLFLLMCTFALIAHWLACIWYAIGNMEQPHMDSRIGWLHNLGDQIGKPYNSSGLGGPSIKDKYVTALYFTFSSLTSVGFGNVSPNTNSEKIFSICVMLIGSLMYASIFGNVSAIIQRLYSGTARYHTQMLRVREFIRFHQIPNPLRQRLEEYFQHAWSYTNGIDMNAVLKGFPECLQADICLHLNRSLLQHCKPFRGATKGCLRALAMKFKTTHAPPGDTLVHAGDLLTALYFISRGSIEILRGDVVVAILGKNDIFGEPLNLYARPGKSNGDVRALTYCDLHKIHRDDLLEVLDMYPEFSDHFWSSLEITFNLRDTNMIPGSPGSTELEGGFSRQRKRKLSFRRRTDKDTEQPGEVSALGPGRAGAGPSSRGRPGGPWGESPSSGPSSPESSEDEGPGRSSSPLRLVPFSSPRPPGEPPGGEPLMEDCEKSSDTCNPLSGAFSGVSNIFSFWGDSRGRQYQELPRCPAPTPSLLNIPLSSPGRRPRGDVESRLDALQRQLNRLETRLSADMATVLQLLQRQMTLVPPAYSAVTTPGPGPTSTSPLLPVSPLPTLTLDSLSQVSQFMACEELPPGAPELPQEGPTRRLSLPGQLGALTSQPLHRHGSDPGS", "assay": "hERG assay (QPatch, CHO cell line expressing hERG channels)", "format": "cell-based", "description": "For hERG assays, a CHO cell line stably transfected with hERG cDNA and expressing hERG channels were seeded into a QPatch plate (Sophion) at a density of 3-8×10^6 cells/ml. The cells were voltage clamped at a holding potential of −80 mV. The hERG current was activated by depolarizing at +20 mV for 5 sec, after which the current was taken back to −50 mV for 5 sec to remove the inactivation and observe the deactivating tail current. The maximum amount of tail current size was used to determine hERG current amplitude. Six doses (30, 10, 3, 1, 0.3 and 0.1 μM) of Compound 003 were chosen to obtain fitting curves and IC50. Data were analyzed using Assay Software provided by Sophion and Graphpad Prism."}, "[3]": {"test_system": "CYP1A2, CYP2C9, CYP2C19, CYP3A4, CYP2D6", "assay": "Cyp inhibition in human liver microsomes", "format": "in vitro ADME", "description": "For Cyp inhibition, human live microsomes from BD Gentest were incubated with Compound 003 (10, 3.33, 1.11, 0.37, 0.12, 0.04, 0.01 μM) and substrate (CYP1A2: Phenacetin at 30 μM; CYP2C9: Diclofenac at 10 μM; CYP2C19: S-Mephenytoin at 35 μM; CYP3A4: Midazolam at 5 μM and Testosterone at 80 μM; CYP2D6: Bufuralol at 10 μM) for the following incubation times: CYP1A2, 2C9, 2D6: 10 minutes, 37° C.; CYP2C19: 45 minutes, 37° C.; CYP3A4: 5 minutes, 37° C. Substrate conversion was measured by liquid chromatography/mass spectrometry/mass spectrometry (LC/MS/MS). Inhibition was calculated by curve fitting in Graph Pad Prism."}, "[4]": {"test_system": "bacterial tester strains TA98, TA100, TA1535 and TA97a and E. coli tester strain WP2 uvrA", "assay": "Ames genotoxicity (bacterial reverse mutation)", "description": "For genotoxicity, bacterial tester strains TA98, TA100, TA1535 and TA97a as described by Ames et al. (1975) and the E. coli tester strain WP2 uvrA as described by Green and Muriel (1976) were incubated with Compound 003 at 250, 75, 25, 7.5, 2.5, 0.75, 0.25, and 0.075 μg/well in 24 well plates either with or without liver homogenate (S9) purchased commercially (MolTox; Boone, N.C.) prepared from male Sprague Dawley rats that have been injected intraperitonealy with Aroclor 1254 (200 mg/mL in corn oil), at a dose of 500 mg/kg, 5 days before sacrifice. Mutagenicity is evaluated by counting the number of colonies that form on non-permissive media."}, "[5]": {"test_system": "human peripheral blood lymphocytes (HPBL)", "assay": "Micronucleus formation assay", "format": "cell-based", "description": "Genotoxicity was further evaluated by micronucleus formation assay in human peripheral blood lymphocytes (HPBL). HPBL were obtained from healthy donors and exposed to Compound 003 at […] for 4 hours with or without S9 activation. The cells were washed with PBS and incubated in complete medium with 6 μg/ml cytocholasin B for 24 hours. The cells were then lysed, fixed, and mounted on microscope slides. The number of mononucleated, binucleated, and micronucleated cells was counted under blinded conditions."}, "Solubility": {"assay": "Solubility", "format": "physicochemical"}, "Microsome stability": {"assay": "Microsome stability", "format": "in vitro ADME"}, "[6]": {"conditions": "rat cassette dosing, 5 mg/kg PO"}}}
{"compound": "Nc1ccc(-c2cccs2)cc1NC(=O)c1cnc(NC2CCN(C(=O)N3CCOCC3)CC2)nc1", "note": "[Compound 003]", "values": [{"measurement": "IC50", "setting": "HDAC1", "value": 15, "unit": "nM"}, {"measurement": "IC50", "setting": "HDAC2", "value": 56, "unit": "nM"}, {"measurement": "IC50", "setting": "HDAC3", "value": 204, "unit": "nM"}, {"measurement": "Cell based assay potency", "setting": "[1]", "value": 3, "unit": "µM"}, {"measurement": "bioavailability", "setting": "[2]; 5 mg/kg, rat, oral AUC to IV AUC, dose adjusted", "value": 118, "unit": "%"}, {"measurement": "AUC", "setting": "[2]; [6]", "value": 59900, "unit": "ng·h/mL"}, {"measurement": "Cmax", "setting": "[2]; [6]", "value": 2320, "unit": "ng/mL"}, {"measurement": "half-life", "setting": "[2]; rat cassette dosing, 5 mg/kg PO, read-out: PO T½ (converted)", "value": 17, "unit": "h"}, {"measurement": "CL renal", "setting": "[2]; rat cassette dosing, IV 1 mg/kg, read-out: IV Clr. (converted)", "value": 2, "unit": "mL/min/kg"}, {"measurement": "hERG", "setting": "hERG channel; In vitro tox", "value": ">30", "unit": "µM"}, {"measurement": "inhibition of the activity of the hERG channel", "setting": "hERG channel; at the highest concentration of 30 μM", "value": "did not inhibit"}, {"measurement": "Cyp", "setting": "[3]; In vitro tox, human liver microsomes", "value": ">10", "unit": "µM"}, {"measurement": "inhibition of activity of any Cyp", "setting": "[3]; up to 10 μM", "value": "did not inhibit"}, {"measurement": "Ames", "setting": "[4]; In vitro tox", "value": "Neg"}, {"measurement": "number of revertant colonies", "setting": "[4]; any strain, with or without S9 activation", "value": "did not increase"}, {"measurement": "MN", "setting": "[5]; In vitro tox", "value": "Neg"}, {"measurement": "number of micronucleated cells", "setting": "[5]; any concentration, 4 hours with or without S9 activation", "value": "did not increase"}, {"measurement": "solubility", "setting": "Solubility", "value": 54, "unit": "µM"}, {"measurement": "Microsome stability", "setting": "Microsome stability", "value": 4.7, "unit": "min"}]}
